Test results taken from paper PMC8980814 (The Journal of Biological Chemistry, 2022).

What was measured:
Experiment in all cases: whole-cell patch clamp, HEK-293T
Assay type in all cases: cell-based
TCaV1 [1] = biological target: T1, TCaV1 (Trichoplax adhaerens, UniProt A0A8K1XS01); settings: for inhibition at 10 µM: read-out: % block at 10 μM
rCaV1.2 [2] = biological target: T2, rCaV1.2 (Rattus norvegicus, UniProt P22002); settings: for inhibition at 10 µM: read-out: % block at 10 μM
rCaV1.2 [3] = biological target: T2, rCaV1.2; settings: 3 mM external Ca2+, step from -100 mV to 0 mV, pH 7.4, agonist
TCaV1 [4] = biological target: T1, TCaV1; settings: 3 mM external Ca2+, step from -100 mV to 0 mV, pH 7.4, agonist

T1 sequence (A0A8K1XS01 1-1822): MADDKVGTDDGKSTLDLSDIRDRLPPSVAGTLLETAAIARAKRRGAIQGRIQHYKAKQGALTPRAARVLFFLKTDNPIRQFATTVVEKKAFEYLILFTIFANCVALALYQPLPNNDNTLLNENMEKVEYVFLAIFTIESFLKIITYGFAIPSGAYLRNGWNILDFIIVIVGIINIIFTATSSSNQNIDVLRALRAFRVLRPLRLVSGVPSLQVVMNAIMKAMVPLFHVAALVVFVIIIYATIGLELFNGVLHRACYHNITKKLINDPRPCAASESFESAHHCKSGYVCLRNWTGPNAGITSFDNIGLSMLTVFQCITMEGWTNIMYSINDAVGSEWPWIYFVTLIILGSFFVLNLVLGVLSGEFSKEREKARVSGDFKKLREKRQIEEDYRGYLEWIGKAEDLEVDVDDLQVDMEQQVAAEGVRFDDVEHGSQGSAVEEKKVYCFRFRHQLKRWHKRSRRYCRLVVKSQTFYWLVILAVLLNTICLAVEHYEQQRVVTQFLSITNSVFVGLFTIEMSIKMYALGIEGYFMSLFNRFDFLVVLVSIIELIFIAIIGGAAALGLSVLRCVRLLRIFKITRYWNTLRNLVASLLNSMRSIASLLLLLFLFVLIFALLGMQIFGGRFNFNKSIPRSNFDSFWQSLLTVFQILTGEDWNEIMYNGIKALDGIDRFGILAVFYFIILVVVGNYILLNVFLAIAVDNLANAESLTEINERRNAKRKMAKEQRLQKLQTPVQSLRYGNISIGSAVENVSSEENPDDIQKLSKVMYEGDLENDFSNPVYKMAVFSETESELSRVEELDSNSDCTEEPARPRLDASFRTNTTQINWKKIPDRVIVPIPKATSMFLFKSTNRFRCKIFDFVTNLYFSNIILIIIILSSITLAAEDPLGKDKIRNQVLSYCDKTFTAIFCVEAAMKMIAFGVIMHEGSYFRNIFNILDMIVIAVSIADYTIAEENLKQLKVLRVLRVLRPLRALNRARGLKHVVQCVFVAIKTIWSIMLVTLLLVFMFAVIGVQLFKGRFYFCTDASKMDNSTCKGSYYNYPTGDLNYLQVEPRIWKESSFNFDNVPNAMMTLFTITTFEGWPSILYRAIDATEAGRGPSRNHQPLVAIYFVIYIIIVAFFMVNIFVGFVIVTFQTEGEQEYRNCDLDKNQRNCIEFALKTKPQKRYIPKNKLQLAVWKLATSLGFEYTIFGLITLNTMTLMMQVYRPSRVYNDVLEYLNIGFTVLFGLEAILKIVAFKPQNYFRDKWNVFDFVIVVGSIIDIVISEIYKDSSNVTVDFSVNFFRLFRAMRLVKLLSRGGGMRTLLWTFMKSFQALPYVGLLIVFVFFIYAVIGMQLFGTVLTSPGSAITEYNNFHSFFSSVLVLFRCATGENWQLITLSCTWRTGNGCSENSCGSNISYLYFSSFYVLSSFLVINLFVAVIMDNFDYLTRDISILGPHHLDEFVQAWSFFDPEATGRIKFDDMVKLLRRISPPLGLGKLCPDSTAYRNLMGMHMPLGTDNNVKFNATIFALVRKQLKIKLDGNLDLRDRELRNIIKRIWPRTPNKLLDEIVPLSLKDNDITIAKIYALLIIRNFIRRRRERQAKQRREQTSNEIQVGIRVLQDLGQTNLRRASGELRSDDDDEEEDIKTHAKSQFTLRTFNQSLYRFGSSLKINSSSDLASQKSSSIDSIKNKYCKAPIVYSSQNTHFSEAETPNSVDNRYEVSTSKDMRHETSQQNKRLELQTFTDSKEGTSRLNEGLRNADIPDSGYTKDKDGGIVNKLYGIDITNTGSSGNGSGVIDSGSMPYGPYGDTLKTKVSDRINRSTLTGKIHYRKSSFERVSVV
T1 sequence (P54283 whole entry partner): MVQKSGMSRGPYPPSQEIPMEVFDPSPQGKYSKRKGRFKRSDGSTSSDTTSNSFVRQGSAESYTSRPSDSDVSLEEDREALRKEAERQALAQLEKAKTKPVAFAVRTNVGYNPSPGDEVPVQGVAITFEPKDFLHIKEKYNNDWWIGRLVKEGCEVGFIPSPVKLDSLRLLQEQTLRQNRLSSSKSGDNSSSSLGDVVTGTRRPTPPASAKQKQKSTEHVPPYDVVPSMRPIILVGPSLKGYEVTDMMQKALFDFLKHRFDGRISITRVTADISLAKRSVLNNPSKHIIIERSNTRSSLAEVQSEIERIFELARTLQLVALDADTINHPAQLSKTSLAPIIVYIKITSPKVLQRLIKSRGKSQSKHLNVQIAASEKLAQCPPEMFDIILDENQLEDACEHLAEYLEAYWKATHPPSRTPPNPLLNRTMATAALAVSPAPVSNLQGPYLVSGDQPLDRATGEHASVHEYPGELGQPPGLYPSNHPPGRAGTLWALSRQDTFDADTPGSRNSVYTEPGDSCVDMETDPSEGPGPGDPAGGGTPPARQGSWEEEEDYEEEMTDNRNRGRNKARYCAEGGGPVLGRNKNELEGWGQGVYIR
T1 sequence (P54290 25-944 partner): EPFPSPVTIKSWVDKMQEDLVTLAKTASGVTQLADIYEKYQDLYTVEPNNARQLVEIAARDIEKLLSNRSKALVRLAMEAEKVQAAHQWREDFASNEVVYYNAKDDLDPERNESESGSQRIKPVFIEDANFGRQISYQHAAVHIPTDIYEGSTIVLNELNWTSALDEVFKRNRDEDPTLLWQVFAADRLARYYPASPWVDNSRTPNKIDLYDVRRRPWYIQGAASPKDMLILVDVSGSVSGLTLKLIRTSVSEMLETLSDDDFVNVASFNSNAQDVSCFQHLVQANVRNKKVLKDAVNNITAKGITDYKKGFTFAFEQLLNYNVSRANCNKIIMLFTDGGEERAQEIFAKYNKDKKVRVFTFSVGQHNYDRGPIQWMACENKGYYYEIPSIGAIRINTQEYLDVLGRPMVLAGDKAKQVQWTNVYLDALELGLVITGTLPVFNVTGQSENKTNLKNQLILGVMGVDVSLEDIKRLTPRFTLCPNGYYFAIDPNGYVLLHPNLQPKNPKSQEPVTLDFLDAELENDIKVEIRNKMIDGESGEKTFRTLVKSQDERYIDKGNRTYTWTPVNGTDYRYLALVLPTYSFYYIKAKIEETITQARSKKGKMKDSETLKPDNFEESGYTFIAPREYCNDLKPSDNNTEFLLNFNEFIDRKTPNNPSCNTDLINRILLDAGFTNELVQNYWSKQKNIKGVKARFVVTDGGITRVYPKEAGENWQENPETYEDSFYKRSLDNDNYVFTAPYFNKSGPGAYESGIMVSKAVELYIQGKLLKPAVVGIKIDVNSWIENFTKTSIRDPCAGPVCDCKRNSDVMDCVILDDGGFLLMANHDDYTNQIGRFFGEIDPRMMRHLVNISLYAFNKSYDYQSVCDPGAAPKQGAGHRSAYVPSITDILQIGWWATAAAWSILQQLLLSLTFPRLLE
T1 sequence (P54290 945-1091 partner): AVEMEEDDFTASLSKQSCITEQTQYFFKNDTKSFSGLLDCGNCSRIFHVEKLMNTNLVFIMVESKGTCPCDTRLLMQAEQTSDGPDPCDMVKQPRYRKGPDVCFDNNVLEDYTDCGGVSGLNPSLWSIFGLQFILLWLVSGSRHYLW

Row | inhibition at 10 µM (TCaV1 [1]) | SMILES | inhibition at 10 µM (rCaV1.2 [2]) | further results
1 | 11.5 ± 2.2% | COC(=O)C1=C(C)NC(C)=C(C(=O)OC(C)C)C1c1cccc2nonc12 (centres unmarked) [isradipine] | 95 ± 6.1% | 
2 |  | COC(=O)C1=C(C)NC(C)=C([N+](=O)[O-])[C@H]1c1ccccc1C(F)(F)F [S(-)BayK 8644] |  | fold-increase in peak current at 5 μM (rCaV1.2 [3]): 1.64 ± 0.32 fold; fold-increase in peak current at 5 μM (TCaV1 [4]): 1.11 ± 0.024 fold
3 | 5.8 ± 3.6% | COC(=O)C1=C(C)NC(C)=C(C(=O)OC)C1c1ccccc1[N+](=O)[O-] [nifedipine] | 99.7 ± 0.1% | 
4 |  | COC(=O)C1=C(C)NC(C)=C([N+](=O)[O-])[C@@H]1c1ccccc1C(F)(F)F [R(+)BayK 8644] |  | inhibition at 100 µM (TCaV1 [1]; read-out: % block at 100 μM): 74.2 ± 0.05%; inhibition at 100 µM (rCaV1.2 [2]; read-out: % block at 100 μM): 97.3 ± 0.01%
